Data on 26 compounds can be found in US20210353626A1, “BETA-ADRENERGIC RECEPTOR ALLOSTERIC MODULATORS” (THE REGENTS OF THE UNIVERSITY OF CALIFORNIA, priority 2018, published 2021).

Bounds are passed on as bounds.

Test [1] has as its target T1, β2AR (Homo sapiens, UniProt P07550).
T1 construct: host or cells: HEK293 cells stably expressing (EA)-β-arrestin-2
Kind of test: β-arrestin-2 recruitment assay (PathHunter enzyme fragment complementation), norepinephrine-stimulated. It is filed as cell-based. As to conditions: for inhibition at 30 µM: arrestin recruitment stimulated by norepinephrine after preincubation with 30 μM of the test compound; for inhibition at 30 µM / inhibition at 10 µM: read-out: attenuation of Emax (maximum efficacy of norepinephrine); for inhibition at 10 µM: arrestin recruitment stimulated by norepinephrine, attenuating effect at 10 μM of the test compound; for negative allosteric effect on norepinephrine-stimulated β-arrestin 2 recruitment (in words): analogs tested at 10 μM and 30 μM compared to norepinephrine alone (FIG. 9). The procedure: (§1) β-Arrestin-2 Recruitment Assay. Determination of β-arrestin-2 recruitment was performed applying the PathHunter assay (DiscoverX, Birmingham, U.K.) which is based on fragment complementation of β-galactosidase in HEK293 cells stably expressing (EA)-β-arrestin-2 and being transiently transfected with a receptor tagged to the PK fragment. In general, cells were transfected employing Mirus TransIT-293 (peqlab, Erlangen, Germany) and incubated in DMEM/F12 medium (Life Technologies, Darmstadt, Germany) at 37° C. and 5% of CO2. After 24 hrs cells were detached with Versene (Life Technologies) and transferred into 384-well plates (white plate, transparent bottom, Greiner Bio-One, Frickenhausen, Germany) at a density of 5000 cells/well using the medium CP4 Reagent (DiscoverX). After further 24 hrs of incubation test compounds dissolved in PBS were added to the cells at a final volume of 25 μL and incubated at 37° C. for a distinct time which was optimized for each receptor (details are summarized in the supporting information). Determination of β-arrestin-2 recruitment was started by adding detection mix, incubation at room temperature for 60 min and measuring chemoluminescence with a Clariostar plate reader (BMG, Ortenberg, Germany). For measuring allosteric effects the modulator was preincubated with the cells at a distinct concentration for 30 min followed by the addition of reference agonist. Data analysis of functional experiments were performed by normalizing the raw data relative to basal activity (0%) and the maximum effect of the reference agonist (100%). Normalized curves from three to seven individual experiments each done as duplicate were analyzed by non-linear regression applying the algorithms in Prism 6.0 (GraphPad, San Diego, Calif.) to get dose-response curves representing average EC50 and Emax value.
β-Arrestin-2 Recruitment Assay. β-Arrestin-2 recruitment was performed applying the fragment complementation assay PathHunter (DiscoverX) with HEK293 cells stably expressing (EA)-β-arrestin-2. The appropriate receptor was transiently transfected when using a specific pCMV vectors with the PK-tag located at different distances downstream of the C-terminus of the inserted receptor (PK1, PK2 and PK-ARMS2, purchased from DiscoverX, Birmingham, UK). ADRB2-PK encoding the human β2AR was purchased from DiscoverX, while all other vectors with related GPCRs were engineered by inserting the DNA of the appropriate receptor in frame into the different PK constructs further excluding the stop codon. Mutants of the β2AR were done applying polymerase chain reaction with appropriate primers.
(In general: Recruitment of arrestin is a read-out of receptor activation apart from second messengers.)

For a further test, the target named is T2, β1AR (Mus musculus, UniProt P34971).
T2 construct: expressed in transfected cells; host or cells: HEK293 cells stably expressing (EA)-β-arrestin-2
T2 sequence (P34971 whole entry): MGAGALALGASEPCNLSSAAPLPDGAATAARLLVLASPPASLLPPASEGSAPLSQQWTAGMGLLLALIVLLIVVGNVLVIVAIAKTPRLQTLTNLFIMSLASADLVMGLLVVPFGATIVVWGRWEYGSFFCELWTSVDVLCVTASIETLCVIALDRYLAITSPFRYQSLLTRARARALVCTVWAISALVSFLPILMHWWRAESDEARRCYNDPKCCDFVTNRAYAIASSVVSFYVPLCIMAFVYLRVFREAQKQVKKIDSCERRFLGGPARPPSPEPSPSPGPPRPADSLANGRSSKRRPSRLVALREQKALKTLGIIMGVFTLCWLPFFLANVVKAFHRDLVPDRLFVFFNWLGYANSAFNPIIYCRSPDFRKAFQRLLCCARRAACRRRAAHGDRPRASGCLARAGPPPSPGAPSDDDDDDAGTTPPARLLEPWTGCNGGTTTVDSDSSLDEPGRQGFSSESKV
Kind of test: β-arrestin-2 recruitment assay, subtype selectivity. It is filed as cell-based. The protocol: as §1
(§2) β-Arrestin-2 Recruitment Assay. β-Arrestin-2 recruitment was performed applying the fragment complementation assay PathHunter (DiscoverX) with HEK293 cells stably expressing (EA)-β-arrestin-2. […]

Another test concerns the target T3, α1AAR (Homo sapiens, UniProt P35348).
T3 construct: expressed in transfected cells; host or cells: HEK293 cells stably expressing (EA)-β-arrestin-2
T3 sequence (P35348 1-466): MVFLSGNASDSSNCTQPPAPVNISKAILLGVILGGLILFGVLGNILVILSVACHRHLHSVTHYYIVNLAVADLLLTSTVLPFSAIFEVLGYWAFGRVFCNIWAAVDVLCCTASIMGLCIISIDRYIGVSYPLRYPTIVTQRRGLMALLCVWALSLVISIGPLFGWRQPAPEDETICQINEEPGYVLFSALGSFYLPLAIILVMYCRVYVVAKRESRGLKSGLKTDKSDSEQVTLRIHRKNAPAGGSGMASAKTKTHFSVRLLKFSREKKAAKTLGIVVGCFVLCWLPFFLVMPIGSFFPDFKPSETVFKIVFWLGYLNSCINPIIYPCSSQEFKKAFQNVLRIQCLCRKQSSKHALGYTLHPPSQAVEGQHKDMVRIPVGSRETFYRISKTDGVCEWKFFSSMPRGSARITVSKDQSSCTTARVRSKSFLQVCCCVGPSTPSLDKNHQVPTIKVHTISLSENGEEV
The test is described as above. The test is classed as cell-based. The protocol: as §1, §2

In test [2] the test system is other Family A GPCRs (α2AAR, 5-HT1AR, M2AChR, D2longDR, PAR2, NTS1R, μOR, κOR, δOR). The description is as above. The test is classed as cell-based. The procedure:
as §1, §2

Test [3] has as its system β2AR E122^3.41 mutants (E122L, E122Q, E122R). Description: Radioligand binding assay with [3H]DHAP, E122 mutants. Further details: species or system human. To be noted: all of the mutants, relative to wild type. The protocol: Membranes prepared from Sf9 cells infected with baculoviruses expressing β2AR (wt) or E122 mutants in the absence or presence of co-expressed Gs heterotrimer were assessed by radioligand binding with [^3H]DHAP. […] Ki's were determined using Graphpad (Prism, San Diego) using the Kd of [^3H]DHAP specific for β2AR (wt) and each mutant, according to the Cheng-Prusoff equation. Values for high affinity agonist site (Khigh) and low affinity site (Klow) from membranes prepared from β2AR (wt) or mutants co-infected with Gs heterotrimer were determined by non-linear regression fitting (2-site) using Kd values of [^3H]DHAP, as above (Graphpad, San Diego).
Radioligand binding assay. […] Samples were taken at varying time points, filtered and washed as described below to remove free [^3H]formoterol. For [^3H]DHAP saturation isotherms of β2AR and mutants, membranes were incubated with varying concentrations of [^3H]DHAP and filtered as described below. Samples were subject to rapid filtration through GF/B membranes and rinsed with ice cold binding buffer to remove free [^3H]probe. Filter plates were dried before adding Microscint 0 and counting bound [^3H]probe using a Packard TopCount. All data were analyzed using Graphpad (Prism, San Diego Calif.).

Test [4] concerns the target T1, β2AR. Description: cAMP accumulation assay (FRET-Epac sensor). It is filed as cell-based.
Experimental: cAMP accumulation assays. Intact cell cAMP accumulation was measured using the FRET-epac sensor in stable HEK293-Epac cells endogenously expressing β2AR or in CHO cells co-transfected with Epac and β2AR or the mutants. Cells were harvested with lifting buffer (20 mM HEPES, pH 7.4, 150 mM NaCl and 0.68 mM EDTA), centrifuged and resuspended in HBSS-HEPES (Hank's Balanced Salt Solution plus 20 mM HEPES, pH 7.4) containing 0-150 μM modulator or vehicle (for a final assay concentration of 0-100 μM). This cell suspension (100 μL) was pipetted into the wells of a 96 well plate (black with clear bottom). After 20 min in the dark at 37° C., 50 μL of HBSS-HEPES buffer at 37° C. containing 1B MX (1 mM final), ascorbic acid (1 mM final), and norepinephrine or epinephrine (0-100 μM final) was added. The CFP/YFP ratio of the Epac-cAMP FRET sensor was immediately measured for 15 min using wavelengths of 435 nm for excitation with 485 nm and 530 nm for emission using a SpectraMax M5 (Molecular Devices).

T1 sequence (P07550 whole entry): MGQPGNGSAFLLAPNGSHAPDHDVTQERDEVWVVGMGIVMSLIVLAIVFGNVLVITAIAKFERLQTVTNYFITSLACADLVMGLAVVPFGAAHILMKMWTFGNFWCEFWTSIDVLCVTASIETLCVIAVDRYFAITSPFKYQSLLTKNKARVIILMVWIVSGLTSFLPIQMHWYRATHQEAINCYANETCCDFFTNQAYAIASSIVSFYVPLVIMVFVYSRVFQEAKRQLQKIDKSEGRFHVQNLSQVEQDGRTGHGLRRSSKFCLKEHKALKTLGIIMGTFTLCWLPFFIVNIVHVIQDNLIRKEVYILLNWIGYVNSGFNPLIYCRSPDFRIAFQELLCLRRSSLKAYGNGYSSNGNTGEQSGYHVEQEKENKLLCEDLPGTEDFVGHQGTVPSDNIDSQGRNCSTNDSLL

For `Nc1nc(Nc2ccccc2)nc2c(Cl)cccc12` [AS328, 8-Chloro-N^2-phenylquinazoline-2,4-diamine], the inhibition at 30 µM on β2AR [1] was 31 to 70%.

On to `COC(=O)c1ccc(Nc2nc(N)c3c(Cl)cccc3n2)cc1` [AS228, Methyl 4-((4-amino-5-chloroquinazolin-2-yl)amino)benzoate], for which the inhibition at 30 µM on β2AR [1] is < 30%.

For the compound `COC(=O)c1ccc(Nc2nc(N)c3ccccc3n2)c(O)c1` [JT11, Methyl 4-((4-aminoquinazolin-2-yl)amino)-3-hydroxybenzoate], the inhibition at 10 µM at β2AR [1] was < 30%.

Turning to `Nc1nc(Nc2ccccc2)nc2ccc(C(F)(F)F)cc12` [DD293, 6-Trifluoromethyl-N^2-phenylquinazoline-2,4-diamine], on β2AR [1], the “negative allosteric effect on norepinephrine-stimulated β-arrestin 2 recruitment (in words)” value (from here on “negative allosteric effect”) is reported as “activity comparable to Br” and the inhibition at 30 µM fell in the range of 71 to 100%.

For the compound `Nc1nc(Nc2ccccc2)nc2ccc(Br)cc12` [AS408, 6-Bromo-N^2-phenylquinazoline-2,4-diamine], the “potency at β1AR relative to β2AR” value at β1AR is “small reduction in the potency”. Besides, the “allosteric activity at α1AR” value on α1AAR is listed as “weak NAM”. The “allosteric activity at the other GPCRs tested” value in test [2] is “no allosteric activity”. For the same compound, the “effect of AS408 on agonist binding affinity at E122 mutants” value in test [3] was “reduced relative to the wild-type receptor”.

Regarding `Nc1nc(Nc2ccccc2O)nc2cccc(Cl)c12` [JT12, 2-((4-Amino-5-chloroquinazolin-2-yl)amino)phenol], the inhibition at 30 µM at β2AR [1] was < 30%.

Regarding `CCCNc1nc(N)c2ccccc2n1` [BRAC1-5], the “negative allosteric effect” value on β2AR [1] is “reduces the negative allosteric effect”.

On to `Nc1nc(Nc2ccccc2)nc2ccccc12` [BRAC1], for which the “negative allosteric regulation of cAMP accumulation (in words)” value on β2AR [4] is given as “weak, negative allosteric regulation”. Further, the “negative allosteric effect” value on β2AR [1] is recorded as “weak, negative allosteric regulation”.

As for `Nc1nc(Nc2ccccc2)nc2c(Br)cccc12` [AS241, 8-Bromo-N^2-phenylquinazoline-2,4-diamine], at β2AR [1], the “negative allosteric effect” value was “reduced allosteric modulation” and the inhibition at 30 µM lay in the range of 31 to 70%.

Take `Nc1nc(Nc2cccc(CCC(=O)OCC(O)CO)c2)nc2ccc(Br)cc12` (stereo not drawn) [DD294, 2,3-dihydroxypropyl-(3-((4-amino-6-bromoquinazolin-2-yl)amino)phenyl)propanoate]: the inhibition at 30 µM on β2AR [1] was < 30%.

For the compound `CNC(=O)c1ccc(Nc2nc(N)c3ccccc3n2)cc1` [AS198, 4-((4-Aminoquinazolin-2-yl)amino)-N-methylbenzamide], the inhibition at 30 µM at β2AR [1] is < 30%.

On to `Nc1nc(Nc2ccccc2)nc2cccc(Br)c12` [AS094, 5-Bromo-N^2-phenylquinazoline-2,4-diamine], for which, on β2AR [1], the “negative allosteric effect” value is “reduced allosteric modulation” and the inhibition at 30 µM was 31 to 70%.

As to `Nc1nc(Nc2ccccc2CO)nc2ccc(Br)cc12` [DD283, 6-Bromo-N^2-(2-hydroxymethyl)phenylquinazoline-2,4-diamine], the inhibition at 30 µM at β2AR [1] was < 30%.

Regarding `Nc1nc(Nc2ccccc2)nc2cc(Br)ccc12` [AS436, 7-Bromo-N^2-phenylquinazoline-2,4-diamine], at β2AR [1], the “negative allosteric effect” value is recorded as “reduced allosteric modulation” and the inhibition at 30 µM is 31 to 70%.

For `COC(=O)c1ccc(Nc2nc(N)c3c(F)cccc3n2)c(O)c1` [AS202, Methyl 4-((4-amino-5-fluoroquinazolin-2-yl)amino)-3-hydroxybenzoate], the inhibition at 30 µM at β2AR [1] was < 30%.

On to `Nc1nc(Nc2ccccc2)nc2ccc(I)cc12` [ST239, 6-Iodo-N^2-phenylquinazoline-2,4-diamine], for which, at β2AR [1], the “negative allosteric effect” value is “activity comparable to Br” and the inhibition at 30 µM is 71 to 100%.

With `CC(C)c1ccc2nc(Nc3ccccc3)nc(N)c2c1` [ST238, 6-Isopropyl-N^2-phenylquinazoline-2,4-diamine], the inhibition at 30 µM at β2AR [1] lay within 31 to 70%.

`Nc1nc(Nc2ccccc2)nc2cccc(Cl)c12` [AS098, 5-Chloro-N^2-phenylquinazoline-2,4-diamine]: the inhibition at 30 µM on β2AR [1] lay in the range of 31 to 70%.

As to `Nc1nc(Nc2ccccc2)nc2ccc(F)cc12` [DD284, 6-Fluoro-N^2-phenylquinazoline-2,4-diamine], on β2AR [1], the “negative allosteric effect” value is given as “less potent” and the inhibition at 30 µM was < 30%.

For the compound `Nc1nc(Nc2ccccc2)nc2ccc(-c3ccccc3)cc12` [ST240, N^2,6-Diphenylquinazoline-2,4-diamine], at β2AR [1], the “negative allosteric effect” value is on record as “further disruption of the negative allosteric effect” and the inhibition at 30 µM is 31 to 70%.

Regarding `Nc1nc(Nc2ccccc2)nc2ccc(Cl)cc12` [DD282, 6-Chloro-N^2-phenylquinazoline-2,4-diamine], on β2AR [1], the “negative allosteric effect” value is listed as “activity comparable to Br” and the inhibition at 30 µM lay within 71 to 100%.

Turning to `Brc1ccc2nc(Nc3ccccc3)ncc2c1` [DD288, 6-Bromo-/V-phenylquinazolin-2-amine], at β2AR [1], the “negative allosteric effect” value is “attenuated negative allosteric effect” and the inhibition at 30 µM lay within 31 to 70%.

For `Nc1nc(Nc2cccc(CCC(=O)O)c2)nc2ccc(Br)cc12` [DD291, 3-(3-((4-amino-6-bromoquinazolin-2-yl)amino)phenyl)propanoic acid], the inhibition at 30 µM at β2AR [1] was < 30%.

With `Nc1nc(Nc2cccc(O)c2)nc2ccccc12` [BRAC1-23], the “negative allosteric effect” value on β2AR [1] was “Reduction of the allosteric effect”.

As to `Nc1nc(Nc2ccc3ccccc3c2)nc2ccc(Br)cc12` [DD290, 6-bromo-N2-(naphthalen-2-yl)quinazoline-2,4-diamine], at β2AR [1], the inhibition at 10 µM is < 30%.

Turning to `Nc1nc(Nc2ccc(S(N)(=O)=O)cc2)nc2ccccc12` [AS197, 4-((4-Aminoquinazolin-2-yl)amino)benzenesulfonamide], the inhibition at 30 µM at β2AR [1] is < 30%.
